We go through two molecules from paper PMC10994559 (PLOS Neglected Tropical Diseases, 2024).

Like-named read-outs stand apart in the source and are kept apart here.

The subject of series [1] is L. infantum promastigotes. Description: L. infantum promastigote viability, resazurin reduction. Format: cell-based, Leishmania infantum. As to conditions: Leishmania infantum. An excerpt: (§1) The infectivity of the parasites was boosted by passaging in Balb/c mice and culturing the infected lymph nodes after six weeks. L. infantum (MHOM / BR / 76 / M4192) parasite was passaged in the same media formulation with 0.5% urine.
(In general: Alamar Blue is a resazurin reagent that responds to reducing activity.)

Series [2] relates to L. major axenic amastigotes. Description: L. major axenic amastigote viability, resazurin reduction. As to conditions: Leishmania major. The procedure: L. major LV561(MHOM/IL/67/LRC-L137 JERICHO II) amastigotes were passaged in Grace insect medium supplemented with NaHCO3, 0.1% amikin and 20% of FCS (pH: 5.4) and kept at 33°C.
Exponential growth phase promastigotes of L. major or L. infantum and axenic amastigotes (L. major) were harvested and seeded in 384 well plates (white, non-transparent, tissue culture treated, flat bottom; Corning) (0.5x10^5 cells per well). Compounds were pre-dispensed into the plate with an Echo 650 acoustic dispenser (Beckman Coulter). After 72h incubation, resazurin was added (1:10 v/v) from a […] stock in PBS, followed by incubation for six hours. Then, fluorescence intensity was measured using a microplate reader (Synergy H1, BioTek) with excitation filter: 550 nm and emission filter: 590 nm. Efficient compounds were selected for the next round of viability assay with 2.5 μM concentrations of the compounds. […] All experiments were performed with AmB as a positive control drug in parallel.
Axenic amastigotes, the relevant form that persists in the infected host, were generated in the lab through established procedures, employing harsh pH (pH 5) and high temperature (33°C) conditions.

In another series the test system is L. major promastigotes. Description: L. major promastigote viability, resazurin reduction. The conditions noted are these: Leishmania major. Format: cell-based, Leishmania major.
Excerpt: as §1

The subject of series [3] is intracellular L. infantum amastigotes. The series is described as follows: Parasite rescue assay (intramacrophage, J774 infected with L. infantum). Format: cell-based, Leishmania infantum. The procedure:
After 24 h incubation, cells were washed five times with serum free RPMI and exposed to a serial dilution of test compounds, prepared using an acoustic dispenser (Echo 650, Labcyte), in RPMI (2% FCS). After two days, cells were washed thrice, and 20 μl of 0.05% SDS in RPMI was added upon removal of the supernatant. Upon incubation under orbital shaking for 30 seconds, cell lysis was stopped by addition of 180 μl M199 medium supplemented with 10% FCS. […] Then, fluorescence intensity of the samples was measured with a microplate reader (Synergy H1, BioTek) with λEx: 550 nm and λEm: 590 nm. Percent of viability was calculated according to cell only and media controls.
J774A.1 cells (J774) were infected with L. infantum metacyclic promastigotes. […] After controlled lysis of the infected macrophages, the released parasites were quantified using a resazurin based viability assay.

In a further series the test system is T. brucei brucei BSF. The series is described as follows: T. brucei BSF viability, resazurin reduction. Format: cell-based, Trypanosoma brucei brucei. The conditions noted are these: for EC50: ± SD (Table 2) / ± SE (S3 Table). The procedure:
T. brucei brucei (strain 427 Lister) blood stream form (BSF) parasites were passaged in complete HMI-9 media supplemented with 10% FCS, Pen-Strep (0.1%) and 2-mercaptoethanol (0.014 v/v) and kept in a 37° C CO2 incubator in filter-cap flasks.
(§2) Viability of T. brucei brucei BSF and T. cruzi trypomastigotes was assayed with fluorescence resazurin reduction assay, essentially as described above. […] Next, selected compounds were tested at 2.5 μM concentration, and promising compounds subjected to 18 concentrations dose response analyses. AN3057 and AmB were used as a control drug in T. brucei and T. cruzi, respectively.

The test system of a further series is T. cruzi trypomastigotes. Description: T. cruzi viability, resazurin reduction. The conditions noted are these: Trypanosoma cruzi. Format: cell-based, Trypanosoma cruzi. The procedure: T. cruzi (Y strain) trypomastigotes were passaged in liver infusion broth media supplemented with tryptose, NaCl, Na2HPO4, KCl, glucose, hemin, Pen-Strep (1%), 10% FCS (pH: 7.2) and kept at 28°C.
as §2

Series [4] is described as follows: Cytotoxicity assay J774, resazurin reduction. It counts as cell-based, murine. As to conditions: mouse, J774 macrophage cells. As for the experimental part: (§3) Mammalian cell lines (J774 and HepG2) were passaged in RPMI media supplemented with MEM, Pen-Strep (1%) and 10% FCS. Cultures were kept at 37°C incubator with 5% CO2 in filter-cap flasks.
(§4) Murine macrophage cells (J774) and human hepatocyte carcinoma HepG2 cells were seeded at 0.5x10^5 cell/well in 384 well plates in triplicate, exposed to serial dilution of compounds, dispensed using an Echo 650 acoustic dispenser (Labcyte). After incubation for 72 h at 37°C, 5% CO2, cell viability was determined using fluorescence resazurin reduction assay (λEx: 550 nm; λEm: 590 nm).

Series [5] relates to Murine macrophage cells (J774). The series is described as follows: Cytotoxicity assay J774, resazurin reduction. It counts as cell-based. The conditions noted are these: cytotoxicity, 72 h. The procedure:
as §3, §4

Series [6] concerns intracellular L. infantum amastigotes. Description: Parasite rescue assay (intramacrophage, J774 infected with L. infantum). It counts as cell-based, Leishmania infantum. As to conditions: J774, 25 µM; intracellular amastigote; read-out: viability, intracellular L. major amastigote (25 µM).
The next series relates to E. histolytica. The series is described as follows: E. histolytica viability, ATP luminescence (Cell titer glo). The conditions noted are these: Entamoeba histolytica. Format: cell-based, Entamoeba histolytica. The procedure:
Entamoeba histolytica (strain B2-5) was passaged in TY-1 medium (Trypticase peptone BBL, Yeast extract BBL, glucose, NaCl, K2HPO4, KH2PO4, cysteine, ascorbic acid, ammonium iron citrate, adult bovine serum, Diamond tween 80, penicillin G, amikacin (pH:6.8)) and kept in 37°C incubator in completely filled tubes with closed lid.
Viability of E. histolytica was assayed via a luminescence assay based on ATP quantification in the live cells. Briefly, 2.5x10^4 cell/ml were exposed to 25 μM of compounds in 96 well plates (non-transparent, tissue culture treated, flat bottom; SPL Life Sciences) in triplicate for 48h. Plates were incubated in sealed anaerobic bags (Oxoid AGS) together with an Anaerogen compact bag (Thermo Scientific) and anaerobic indicator (Thermo Scientific) at 37°C. Then, Cell titer glo reagent (Promega) was added to the reaction (1:5) according to manufacturers’ instruction. After 15 min of orbital shaking, followed by 10 min incubation at RT, ATP-bioluminescence was quantified at RT using a Synergy H1 plate reader (Synergy H1, BioTek). Metronidazole was included as control drug in all the assays for E. histolytica. Test compounds indicating significant growth reduction in the primary screen were subjected to potency determination. These secondary screens were essentially carried out as detailed above, but with a 9 to 16-point concentration range of the test compounds spanning 0.01–100 μM.
For orientation: Cellular ATP, detected with luciferase, serves as a proxy for viable cell number.

Setting [7] is: Leishmania infantum, J774, read-out: EC50 L. infantum rescue assay, intramacrophage (J774), 18 concentrations.
Setting [8] is: Trypanosoma brucei, read-out: EC50 T. brucei BSF, dose response, triplicate.

Take `CC(C)(C)OC(=O)NC(Cc1ccccc1)C(O)CNc1ccc(C(C)(C)C)cc1` (centres unmarked) [LTC-1035]: the viability at 2.5 µM in [1] (sheet LTC_compound_viability, value ± spread, read-out: viability, L. infantum promastigote (2.5 µM)) was found to be 68.3 ± 1.6%; in series [2] (read-out: viability, L.major amastigote(2.5 µM)) it was 71.4 ± 0.91%; in the series on T. brucei brucei BSF (Trypanosoma brucei, 2.5 µM, read-out: viability, T.brucei (2.5 µM)), 71.2 ± 5.31%; in the series on T. cruzi trypomastigotes (read-out: viability, T.cruzi (2.5 µM)), 63.9 ± 2.75%; with E. histolytica (read-out: viability, E.histolytica (2.5 µM)) it was 48.5 ± 2.26%. Further, the viability at 25 µM worked out at 0.84 ± 0.54% in series [1] (sheet LTC_compound_viability, value ± spread, read-out: viability, L. infantum promastigote (25 µM)); 27.7 ± 0.6% in [2] (read-out: viability, L.major amastigote (25 µM)); 89.5 ± 1.08% with L. major promastigotes (72 h, read-out: viability, L.major promastigote (25 µM)); 2.19 ± 1.75% with L. major promastigotes (25 µM, read-out: viability, L.major promastigote (25 µM)); 2.22 ± 0.96% in the series with T. brucei brucei BSF (Trypanosoma brucei, read-out: viability, T.brucei (25 µM)); 25.6 ± 1.61% in the series with T. cruzi trypomastigotes (25 µM, read-out: viability, T.cruzi (25 µM)). In addition, the viability at 25 µM stood at 11.4 ± 1.86% in series [6] and 101 ± 21.2% with E. histolytica (read-out: viability, E.histolytica (25 µM)). Besides, the EC50 in series [3] (setting [7]) was 6.7 ± 1.7 µM; in series [3] (read-out: EC50 L. infantum rescue assay, intramacrophage (J774), 18 concentrations), 6.67 ± 1.7 µM; in the series with T. brucei brucei BSF (setting [8]), 2.9 ± 1.7 µM; in series [5] (Mus musculus, J774, 72 h), above 25 µM; in series [5], above 16 µM. Besides, in series [4] (read-out: viability, J774 (2.5 µM)), the viability at 72 h, 2.5 µM was 92.3 ± 5.33%. The viability at 72 h, 25 µM in [4] (read-out: viability, J774 (25 µM)) is 95.4 ± 11.3%.

With `CC[C@@H](C)[C@H](c1nc2ccccc2n1Cc1cn(-c2c(F)c(F)c(F)c(F)c2F)nn1)N1C(=O)c2ccc(C)cc2C1=O` [PHT-80], the viability at 2.5 µM came to 90.2 ± 3.63% in series [1] (72 h, vs non-treated cells, read-out: Residual viability, L. infantum promastigote (2.5 µM)); 50.9 ± 3.89% in [2] (72 h, read-out: Residual viability, L.major amastigote (2.5 µM)); 3.4% in the series with T. brucei brucei BSF (Trypanosoma brucei, 72 h, read-out: Residual viability, T.brucei (2.5 µM), BSF, 2.5 µM, 72 h); 72.4 ± 2.05% in the series on T. cruzi trypomastigotes (72 h, 72 h, read-out: Residual viability, T.cruzi (2.5 µM)); 61.8 ± 13.1% in the series on E. histolytica (2.5 µM, 48 h, read-out: Residual viability, E.histolytica (2.5 µM)). Moreover, the viability at 25 µM in [1] (72 h, vs non-treated cells, ± SD, triplicate, read-out: Residual viability, L. infantum promastigote (25 µM)) is 2.87 ± 0.48%; in [2] (72 h, read-out: Residual viability, L.major amastigote (25 µM)) it was 1.7%; with L. major promastigotes (25 µM, 72 h, vs non-treated cells, read-out: Residual viability, L.major promastigote (25 µM)), 11.3 ± 1.4%; in series [3] (Leishmania infantum, J774, rescue assay in J774, 25 µM, read-out: Residual viability, intracellular L. infantum amastigote (25 µM)) it was 50.6 ± 13.8%; with T. brucei brucei BSF (Trypanosoma brucei, 72 h, BSF, 72 h, read-out: Residual viability, T.brucei (25 µM)), -2.86 ± 1.75%; in the series with T. cruzi trypomastigotes (72 h, read-out: Residual viability, T.cruzi (25 µM), 25 µM, 72 h) it was 25.7 ± 3.29%. Further, in the series with E. histolytica (25 µM, 48 h, read-out: Residual viability, E.histolytica (25 µM)), the viability at 25 µM is 45.2 ± 18.6%. In addition, the EC50 in [2] (read-out: EC50 L. major axenic amastigote) was 2.5 ± 1.7 µM; in series [3] (setting [7]), above 10 µM; in the series with T. brucei brucei BSF (setting [8]), 0.4 µM; with T. brucei brucei BSF (read-out: EC50 T. brucei BSF, dose response, triplicate), 0.5 µM; in the series on T. brucei brucei BSF (read-out: EC50 T. brucei BSF, dose response, triplicate, listed as PH-80), 0.45 µM; in [5] (Mus musculus, J774, 72 h) it was above 25 µM. In the series with T. brucei brucei BSF (BSF, 2.5 µM, 72 h), the “Residual viability, T.brucei (2.5 µM)” value amounted to 3.41±0.28%. For the same molecule, the viability at 72 h, 2.5 µM in [4] (cytotoxicity, 72 h, read-out: Residual viability, J774 (2.5 µM)) amounted to 124 ± 4.4%. For the same molecule, in series [4] (cytotoxicity, 72 h, read-out: Residual viability, J774 (25 µM)), the viability at 72 h, 25 µM was 78.1 ± 6.86%.

Broadly, the viability is a read-out of living cells in per cent, often relative to untreated cells.
